Source: publication PMC4754898, “Discovery of Radioiodinated Monomeric Anthraquinones as a Novel Class of Necrosis Avid Agents for Early Imaging of Necrotic Myocardium” (Scientific Reports, 2016)

Assays:
[1] = In vitro stability of 131I-anthraquinones in rat serum by TLC; assay type: in vitro ADME; details: 37 °C, 24 h
Protocol: Iodogen ([…]-3a, 6a-diphenylglycouracil; Sigma, St. Louis, MO) was dissolved in dichloromethane and deposited on the wall of tubes as a thin film. Radioiodination was initiated by adding dimethylsulfoxide (DMSO) solutions of each anthraquinone (1.25 mg/mL) and Na^131I solutions (4:1, v/v) into Iodogen-coated tube, adjusting pH with phosphate buffered saline (PBS, pH 7.4). Then these mixtures were shaken and incubated at 45 °C for 2–4 h, and radiochemical purity was determined by thin-layer chromatography (TLC) using Whatman No.1 filter paper and 0.1 M hydrochloric acid as the developing solvent. Then the solvent was evaporated, the paper was cut in half and measured the radioactivity by direct γ-counting (WIZARD1470; PerkinElmer, USA). For obtaining the injectants, these mixtures were diluted with propylene glycol and polyethylene glycol 400 (1:1, v/v), respectively.
In vitro stability of eight ^131I-anthraquinones were tested in rat serum, 0.1 mL injectant was added to 0.9 mL rat serum (1:9, v/v) and incubated at 37 °C. Then radiolabeling stability was determined by TLC using the procedure described above at the time points of 0.5 h, 6 h, 12 h and 24 h, respectively.

necrotic muscle [2] = assay: Biodistribution in mice with muscular necrosis (gamma counting); assay type: in vivo, Kunming mice; details: model mice, 0.37 MBq i.v.
Protocol: All animals were given 0.12% potassium iodide in drinking water from 3 days before the experiment till the end of experiment to protect the thyroid gland from taking up free ^131I.
Each mouse was intramuscularly injected with 0.1 mL absolute alcohol in the left hind limb to induce muscular necrosis.
At least 12 h after recovery from surgery, each model mouse was intravenously administrated with 0.37 MBq of ^131I-anthraquinones and each rat was intravenously injected with 3.7 MBq of ^131I-rhein or ^131I-Hyp for pharmacological evaluations. All animals were intravenously administered with 0.1 ml of 1% Evans blue solution for intravital staining of necrosis that helped to selectively sample bluish necrotic tissues for radioactivity quantification.
One hundred and twenty model mice were randomly divided into 24 groups for eight tracers (n = 5 per compound and per time point). Mice were sacrificed by cervical dislocation at 2 h, 12 h and 24 h after administration. Necrotic and normal tissues of interest (blood, thyroid, lung, heart, liver, spleen, stomach, kidney, viable/necrotic muscle) were sampled, and wet weighed with the radioactivity measured by a γ-counter. Background radiation and physical decay were corrected during counting. The results were expressed as percentage of the injected dose per gram of tissue (%ID/g). Ratios of radioactivity concentrations between in necrotic and viable muscle were calculated.

necrotic muscle [3] = assay: TTC staining and quantitative autoradiography of necrotic and viable muscle; design: species or system Kunming mice; details: mouse, in vivo
Protocol: The necrotic muscles were stained in 2% TTC solution at 37 °C for 15 min and digitally photographed, then cut into 50 μm frozen sections with a cryotome (Shandon FSE, Thermo Fisher Scientific Co., Waltham, MA, USA) for autoradiography. Autoradiographs of these sections were obtained by exposure to a high-performance storage phosphor screen (Cyclone; Canberra-Packard, Ontario, Canada) for 6–48 h and digitally photographed with Optiquant software (Pacard, Packard Meriden, CT, USA). Relative tracer concentrations in necrotic muscles were evaluated by regions of interest analysis and the results were compared with that from the corresponding viable muscles.

[4] = In vitro stability of 131I-rhein in rat serum by radio-HPLC; assay type: in vitro ADME; details: 37 °C, 24 h
Protocol: Reversed-phase high performance liquid chromatography (RP-HPLC) was equipped with Waters 2998 PDA detector, HERM LB500 radiometric detector (Berthold Technologies, Germany), a pump (Waters 2695) and a Alltima C18 column (250 × 4.6 mm, 5 μm, GRACE). The mobile phase was methanol/0.1% phosphoric acid in water (80:20, v/v), the flow rate was 1.0 mL/min and the temperature of column was 30 °C. All solvents used for HPLC analysis were HPLC grade.
^131I-rhein was incubated in rat serum at 37 °C for 24 h, and the mixture was mixed with methanol at a ratio of 2:3 and shaken. After centrifuging the mixture at 12000 rpm for 10 min, the supernatant was collected and passed through 0.22-μm pore-size filters (Membrana, Wuppertal, NRW, Germany) for in vitro stability analysis by radio-HPLC as described above.

[5] = Pharmacokinetics (blood clearance) in normal rats; assay type: in vivo, Sprague-Dawley rats
Protocol: For the pharmacokinetic study, six healthy rats were intravenously injected with ^131I-rhein under anesthesia. The blood samples (10 μL) were collected by means of a tail incision at 5 min, 10 min, 30 min, 1 h, 2 h, 4 h, 6 h, 8 h, 10 h, 12 h and 24 h after administration. The radioactivity of blood samples was measured and the results were expressed as megabecquerel per liter (MBq/L). The blood pharmacokinetic parameters of the radiotracer were analyzed by using the non-compartmental analysis of Drug and Statistics for windows 2.0 software.

necrotic myocardium [6] = assay: SPECT/CT imaging of rats with reperfused MI or sham operation; assay type: in vivo, Sprague-Dawley rats; details: 6 h after administration
infarcted myocardium = assay: Autoradiography of MI heart sections from model rats; assay type: in vivo, Sprague-Dawley rats; details: 50 μm frozen sections
necrotic myocardium [7] = details: rat, in vivo, iv

O=C1c2ccccc2C(=O)c2c1ccc([131I])c2O [^131I-1-hydroxyanthraquinone]
stability after incubation in rat plasma (TLC) [1]: 87.93% ± 0.45%
Blood uptake (necrotic muscle [2]; 2 h after administration): 3.19 ± 0.35 %ID/g
Heart uptake (necrotic muscle [2]; 2 h after administration): 0.58 ± 0.06 %ID/g
Kidney uptake (necrotic muscle [2]; 2 h after administration): 1.64 ± 0.17 %ID/g
Liver uptake (necrotic muscle [2]; 2 h after administration): 1.07 ± 0.11 %ID/g
Lung uptake (necrotic muscle [2]; 2 h after administration): 1.12 ± 0.09 %ID/g
N/V ratio (necrotic muscle/viable muscle) (necrotic muscle [2]; 2 h after administration): 3.71 ± 0.37
Necrotic.m (necrotic muscle) uptake (necrotic muscle [2]; 2 h after administration): 2.75 ±0.31 %ID/g
Spleen uptake (necrotic muscle [2]; 2 h after administration): 1.04 ± 0.08 %ID/g
Stomach uptake (necrotic muscle [2]; 2 h after administration): 1.40 ± 0.13 %ID/g
Thyroid uptake (necrotic muscle [2]; 2 h after administration): 1.53 ± 0.21 %ID/g
Viable.m (viable muscle) uptake (necrotic muscle [2]; 2 h after administration): 0.74 ± 0.05 %ID/g
Blood uptake (necrotic muscle [2]; 12 h after administration): 0.66 ± 0.04 %ID/g
Heart uptake (necrotic muscle [2]; 12 h after administration): 0.11 ± 0.01 %ID/g
Kidney uptake (necrotic muscle [2]; 12 h after administration): 0.37 ± 0.02 %ID/g
Liver uptake (necrotic muscle [2]; 12 h after administration): 0.24 ± 0.03 %ID/g
Lung uptake (necrotic muscle [2]; 12 h after administration): 0.33 ± 0.04 %ID/g
N/V ratio (necrotic muscle/viable muscle) (necrotic muscle [2]; 12 h after administration): 4.22 ± 0.02
Necrotic.m (necrotic muscle) uptake (necrotic muscle [2]; 12 h after administration): 0.59 ± 0.05 %ID/g
Spleen uptake (necrotic muscle [2]; 12 h after administration): 0.26 ± 0.02 %ID/g
Stomach uptake (necrotic muscle [2]; 12 h after administration): 0.82 ± 0.09 %ID/g
Thyroid uptake (necrotic muscle [2]; 12 h after administration): 0.46 ± 0.03 %ID/g
Viable.m (viable muscle) uptake (necrotic muscle [2]; 12 h after administration): 0.14 ± 0.01 %ID/g
Blood uptake (necrotic muscle [2]; 24 h after administration): 0.07 ± 0.01 %ID/g
Heart uptake (necrotic muscle [2]; 24 h after administration): 0.02 ± 0.00 %ID/g
Kidney uptake (necrotic muscle [2]; 24 h after administration): 0.04 ± 0.01 %ID/g
Liver uptake (necrotic muscle [2]; 24 h after administration): 0.08 ± 0.01 %ID/g
Lung uptake (necrotic muscle [2]; 24 h after administration): 0.05 ± 0.01 %ID/g
N/V ratio (necrotic muscle/viable muscle) (necrotic muscle [2]; 24 h after administration): 5.83 ± 0.29
Necrotic.m (necrotic muscle) uptake (necrotic muscle [2]; 24 h after administration): 0.35 ± 0.02 %ID/g
Spleen uptake (necrotic muscle [2]; 24 h after administration): 0.02 ± 0.00 %ID/g
Stomach uptake (necrotic muscle [2]; 24 h after administration): 0.09 ± 0.01 %ID/g
Thyroid uptake (necrotic muscle [2]; 24 h after administration): 0.33 ± 0.04 %ID/g
Viable.m (viable muscle) uptake (necrotic muscle [2]; 24 h after administration): 0.06 ± 0.00 %ID/g
necrotic/viable muscle ratio by quantitative autoradiography (necrotic muscle [3]): 9.16 ± 0.78

O=C(O)c1cc(O)c2c(c1)C(=O)c1ccc([131I])c(O)c1C2=O [^131I-rhein]
stability after incubation in rat plasma (TLC) [1]: 93.17% ± 0.38%
intact parent tracer after incubation in rat serum (radio-HPLC) [4]: 91.75% ± 0.47%
Blood uptake (necrotic muscle [2]; 2 h after administration): 3.14 ± 0.32 %ID/g
Heart uptake (necrotic muscle [2]; 2 h after administration): 0.47 ± 0.05 %ID/g
Kidney uptake (necrotic muscle [2]; 2 h after administration): 2.68 ± 0.47 %ID/g
Liver uptake (necrotic muscle [2]; 2 h after administration): 2.03 ± 0.21 %ID/g
Lung uptake (necrotic muscle [2]; 2 h after administration): 0.95 ± 0.06 %ID/g
N/V ratio (necrotic muscle/viable muscle) (necrotic muscle [2]; 2 h after administration): 5.84 ± 0.10
Necrotic.m (necrotic muscle) uptake (necrotic muscle [2]; 2 h after administration): 4.61 ± 0.39 %ID/g
Spleen uptake (necrotic muscle [2]; 2 h after administration): 0.97 ± 0.13 %ID/g
Stomach uptake (necrotic muscle [2]; 2 h after administration): 1.40 ± 0.16 %ID/g
Thyroid uptake (necrotic muscle [2]; 2 h after administration): 1.56 ± 0.17 %ID/g
Viable.m (viable muscle) uptake (necrotic muscle [2]; 2 h after administration): 0.79 ± 0.08 %ID/g
Blood uptake (necrotic muscle [2]; 12 h after administration): 1.20 ± 0.13 %ID/g
Heart uptake (necrotic muscle [2]; 12 h after administration): 0.28 ± 0.03 %ID/g
Kidney uptake (necrotic muscle [2]; 12 h after administration): 2.03 ± 0.12 %ID/g
Liver uptake (necrotic muscle [2]; 12 h after administration): 1.55 ± 0.12 %ID/g
Lung uptake (necrotic muscle [2]; 12 h after administration): 0.62 ± 0.05 %ID/g
N/V ratio (necrotic muscle/viable muscle) (necrotic muscle [2]; 12 h after administration): 7.26 ± 0.23
Necrotic.m (necrotic muscle) uptake (necrotic muscle [2]; 12 h after administration): 4.06 ± 0.16 %ID/g
Spleen uptake (necrotic muscle [2]; 12 h after administration): 0.65 ± 0.08 %ID/g
Stomach uptake (necrotic muscle [2]; 12 h after administration): 1.05 ± 0.11 %ID/g
Thyroid uptake (necrotic muscle [2]; 12 h after administration): 0.78 ± 0.07 %ID/g
Viable.m (viable muscle) uptake (necrotic muscle [2]; 12 h after administration): 0.56 ± 0.04 %ID/g
Blood uptake (necrotic muscle [2]; 24 h after administration): 0.15 ± 0.01 %ID/g
Heart uptake (necrotic muscle [2]; 24 h after administration): 0.08 ± 0.01 %ID/g
Kidney uptake (necrotic muscle [2]; 24 h after administration): 0.65 ± 0.07 %ID/g
Liver uptake (necrotic muscle [2]; 24 h after administration): 0.49 ± 0.05 %ID/g
Lung uptake (necrotic muscle [2]; 24 h after administration): 0.18 ± 0.03 %ID/g
N/V ratio (necrotic muscle/viable muscle) (necrotic muscle [2]; 24 h after administration): 12.33 ± 0.67
Necrotic.m (necrotic muscle) uptake (necrotic muscle [2]; 24 h after administration): 0.74 ± 0.04 %ID/g
Spleen uptake (necrotic muscle [2]; 24 h after administration): 0.29 ± 0.03 %ID/g
Stomach uptake (necrotic muscle [2]; 24 h after administration): 0.09 ± 0.02 %ID/g
Thyroid uptake (necrotic muscle [2]; 24 h after administration): 0.32 ± 0.06 %ID/g
Viable.m (viable muscle) uptake (necrotic muscle [2]; 24 h after administration): 0.06 ± 0.00 %ID/g
necrotic/viable muscle ratio by quantitative autoradiography (necrotic muscle [3]): 17.64 ± 1.28
radioactivity concentration in blood as share of peak radioactivity concentration ([5]; 6 h): 23.47% ± 1.91%
AUC(0 –∞) ([5]; i.v. 3.7 MBq, blood): 211.76 ± 31.18 MBq/L*h
CLZ (clearance) ([5]; i.v. 3.7 MBq, blood): 0.67 ± 0.17 mL/min/kg
Cmax ([5]; i.v. 3.7 MBq, blood): 42.40 ± 5.41 MBq/L
Tmax ([5]; i.v. 3.7 MBq, blood): 4.8 ± 0 min
VZ ([5]; i.v. 3.7 MBq, blood): 0.42 ± 0.06 L/kg
t1/2z (elimination half-life) ([5]; i.v. 3.7 MBq, blood): 8.20 ± 0.49 h
AUC(0 –t) ([5]; i.v. 3.7 MBq, within 24 h, blood): 187.46 ± 28.26 MBq/L*h
SPECT/CT imaging outcome in the heart (necrotic myocardium [6]): Relatively high uptake as a hot spot showed up in the heart of the model rat
activity in infarcted myocardium relative to viable myocardium (autoradiography) (infarcted myocardium): 14 fold
necrotic/viable myocardium ratio (necrotic myocardium [7]): about 9.81 ± 0.61
radioactivity concentration in blood (necrotic myocardium [7]; 6 h): 0.36 ± 0.03 %ID/g
radioactivity concentration in infarcted myocardium (necrotic myocardium [7]; 6 h): 1.18 ± 0.03 %ID/g
radioactivity concentration in kidney (necrotic myocardium [7]; 6 h): 0.68 ± 0.04 %ID/g
radioactivity concentration in liver (necrotic myocardium [7]; 6 h): 0.14 ± 0.01 %ID/g
radioactivity concentration in lung (necrotic myocardium [7]; 6 h): 0.24 ± 0.02 %ID/g
radioactivity concentration in viable myocardium (necrotic myocardium [7]; 6 h): 0.12 ± 0.01 %ID/g
